These molecules were tested on HeLa cervical carcinoma cell line (assay: Cellular cytotoxicity assay (Alamar Blue / Resazurin)). Details: Homo sapiens; HeLa cells, 48 hours incubation; read-out: IC50 (anti-proliferative/cytotoxic potency).
Assay type: cell-based
Method: The anti-proliferative activity of the histone deacetylase inhibitory compounds as described herein, is evaluated with the HeLa cervical carcinoma cell line (ATCC CCL2) using the Alamar Blue (Resazurin) cell viability assay (O'Brien et al. Eur J Biochem 267, 5421-5426, 2000). Resazurin is reduced to the fluorescent resorufin by cellular dehydrogenase activity, correlating with viable, proliferating cells. Test compounds are dissolved as 10 mM solutions in dimethylsulfoxide (DMSO) and subsequently diluted in semi-logarithmic steps. HeLa cells are seeded into 96 well flat bottom plates at a density of 3000 cells per well in a volume of 200 μl per well. 24 hours after seeding 1 μl each of the compound dilutions are added into each well of the 96 Well plate. Each compound dilution is tested as quadruplicates. Wells containing untreated control cells are filled with 200 μl DMEM medium containing 0.5% v:v DMSO. The cells are then incubated with the substances for 48 hours at 37° C. in a humidified atmosphere containing 5% carbon dioxide. To determine the viability of the cells, 20 μl of an Resazurin solution (Sigma; 90 mg/l) are added. After 4 hours incubation at 37° C. the fluorescence is measured at an extinction of 544 nm and an emission of 590 nm. For the calculation of the cell viability the emission value from untreated cells is set as 100% viability and the emission rates of treated cells are set in relation to the values of untreated cells. Viabilites are expressed as % values. The corresponding IC50 values of the compounds for cytotoxic activity are determined from the concentration-effect curves by means of non-linear regression.

Q: With `O=C(/C=C/c1ccn(S(=O)(=O)c2ccc(-c3cccc(CN4CCOCC4)c3)cc2)c1)NO` [Compound 64, (E)-N-Hydroxy-3-[1-(3′-morpholin-4-ylmethyl-biphenyl-4-sulfonyl)-1H-pyrrol-3-yl]-acrylamide] as the molecule, how does the IC50 read?
A: 0.014 to 6.7 µM

Q: For `O=C(/C=C/c1ccn(S(=O)(=O)c2ccc(-c3ccc4c(c3)OCO4)cc2)c1)NO` [Compound 65, (E)-3-[1-(4-Benzo[1,3]dioxol-5-yl-benzenesulfonyl)-1H-pyrrol-3-yl]-N-hydroxy-acrylamide], which IC50 is on record?
A: 0.014 to 6.7 µM

Q: With `Nc1cccc(-c2ccc(S(=O)(=O)n3ccc(/C=C/C(=O)NO)c3)cc2)c1` [Compound 66, (E)-3-[1-(3′-Amino-biphenyl-4-sulfonyl)-1H-pyrrol-3-yl]-N-hydroxy-acrylamide] as the molecule, how does the IC50 read?
A: 0.014 to 6.7 µM

Q: With `O=C(/C=C/c1ccn(S(=O)(=O)c2ccc(-c3ccc(O)cc3)cc2)c1)NO` [Compound 67, (E)-N-Hydroxy-3-[1-(4′-hydroxy-biphenyl-4-sulfonyl)-1H-pyrrol-3-yl]acrylamide] as the molecule, how does the IC50 read?
A: 0.014 to 6.7 µM

Q: Which IC50 does the source give for `CN1CCC(CCOc2ccc(-c3ccc(S(=O)(=O)n4ccc(C=CC(=O)NO)c4)cc3)cc2)CC1` [Compound 68, (E)-N-Hydroxy-3-(1,4′-[2-(1-methyl-piperidin-4-yl)-ethoxy]biphenyl-4-sulfonyl)-1H-pyrrol-3-yl)-acrylamide] here?
A: 0.014 to 6.7 µM

Q: How did the IC50 turn out when `O=C(/C=C/c1ccn(S(=O)(=O)c2ccc(-c3ccc4c(c3)CCO4)cc2)c1)NO` [Compound 70, (E)-3-{1-[4-(2,3-Dihydro-benzofuran-5-yl)-benzenesulfonyl]-1H-pyrrol-3-yl}-N-hydroxy-acrylamide] was run?
A: 0.014 to 6.7 µM

Q: For `O=C(/C=C/c1ccn(S(=O)(=O)c2ccc(-c3ccc(N4CCOCC4)cc3)cc2)c1)NO` [Compound 71, (E)-N-Hydroxy-3-[1-(4′-morpholin-4-yl-biphenyl-4-sulfonyl)-1H-pyrrol-3-yl]-acrylamide], which IC50 is on record?
A: 0.014 to 6.7 µM

Q: `O=C(/C=C/c1ccn(S(=O)(=O)c2ccc(-c3cccc(OCCCN4CCCC4)c3)cc2)c1)NO` [Compound 72, (E)-N-Hydroxy-3-{1-[3′-(3-pyrrolidin-1-yl-propoxy)-biphenyl-4-sulfonyl]-1H-pyrrol-3-yl}-acrylamide] was tested. Which IC50 did it give?
A: 0.014 to 6.7 µM

Q: Which IC50 does the source give for `CN1CCN(CCCOc2cccc(-c3ccc(S(=O)(=O)n4ccc(/C=C/C(=O)NO)c4)cc3)c2)CC1` [Compound 73, (E)-N-Hydroxy-3-(1-{3′-[3-(4-methyl-piperazin-1-yl)-propoxy]-biphenyl-4-sulfonyl}-1H-pyrrol-3-yl)-acrylamide] here?
A: 0.014 to 6.7 µM

Q: With `O=C(/C=C/c1ccn(S(=O)(=O)c2ccc(-c3cccc(OCCCN4CCOCC4)c3)cc2)c1)NO` [Compound 74, (E)-N-Hydroxy-3-{1-[3′-(3-morpholin-4-yl-propoxy)-biphenyl-4-sulfonyl]-1H-pyrrol-3-yl}-acrylamide] as the molecule, how does the IC50 read?
A: 0.014 to 6.7 µM

Q: Which IC50 does the source give for `CN1CCN(CCOc2ccc(-c3ccc(S(=O)(=O)n4ccc(/C=C/C(=O)NO)c4)cc3)cc2)CC1` [Compound 76, (E)-N-Hydroxy-3-(1-{4′-[2-(4-methyl-piperazin-1-yl)-ethoxy]-biphenyl-4-sulfonyl}-1H-pyrrol-3-yl)-acrylamide] here?
A: 0.014 to 6.7 µM

Q: Which IC50 does the source give for `O=C(/C=C/c1ccn(S(=O)(=O)c2ccc(-c3ccc(OCCCN4CCOCC4)cc3)cc2)c1)NO` [Compound 78, (E)-N-Hydroxy-3-{1-[4′-(3-morpholin-4-yl-propoxy)-biphenyl-4-sulfonyl]-1H-pyrrol-3-yl}-acrylamide] here?
A: 0.014 to 6.7 µM

Q: `CN1CCN(CCCOc2ccc(-c3ccc(S(=O)(=O)n4ccc(/C=C/C(=O)NO)c4)cc3)cc2)CC1` [Compound 79, (E)-N-Hydroxy-3-(1-{4′-[3-(4-methyl-piperazin-1-yl)-propoxy]-biphenyl-4-sulfonyl}-1H-pyrrol-3-yl)-acrylamide] was tested. Which IC50 did it give?
A: 0.014 to 6.7 µM

Q: Which IC50 does the source give for `O=C(/C=C/c1ccn(S(=O)(=O)c2ccc(-c3cccc(OCCN4CCCC4)c3)cc2)c1)NO` [Compound 80, (E)-N-Hydroxy-3-{1-[3′-(2-pyrrolidin-1-yl-ethoxy)-biphenyl-4-sulfonyl]-1H-pyrrol-3-yl}-acrylamide] here?
A: 0.014 to 6.7 µM

Q: How did the IC50 turn out when `O=C(/C=C/c1ccn(S(=O)(=O)c2ccc(-c3ccc(OCCCN4CCCC4)cc3)cc2)c1)NO` [Compound 81, (E)-N-Hydroxy-3-{1-[4′-(3-pyrrolidin-1-yl-propoxy)-biphenyl-4-sulfonyl]-1H-pyrrol-3-yl}-acrylamide] was run?
A: 0.014 to 6.7 µM

Q: How did the IC50 turn out when `COc1ccc(-c2ccc(S(=O)(=O)n3ccc(/C=C/C(=O)NO)c3)cc2)cc1` [Compound 82, (E)-N-Hydroxy-3-[1-(4′-methoxy-biphenyl-4-sulfonyl)-1H-pyrrol-3-yl]-acrylamide] was run?
A: 0.014 to 6.7 µM

Q: For `O=C(/C=C/c1ccn(S(=O)(=O)c2ccc(-c3cn(CCN4CCOCC4)nn3)cc2)c1)NO` [Compound 83, (E)-N-Hydroxy-3-(1-{4-[1-(2-morpholin-4-yl-ethyl)-1H-[1,2,3]triazol-4-yl]-benzenesulfonyl}-1H-pyrrol-3-yl)-acrylamide], which IC50 is on record?
A: 0.014 to 6.7 µM

Q: `O=C(/C=C/c1ccn(S(=O)(=O)c2ccc(-c3ccc(CNC4CCCC4)cc3)cc2)c1)NO` [Compound 84, (E)-3-[1-(4′-Cyclopentylaminomethyl-biphenyl-4-sulfonyl)-1H-pyrrol-3-yl]-N-hydroxy-acrylamide] was tested. Which IC50 did it give?
A: 0.014 to 6.7 µM

Q: How did the IC50 turn out when `O=C(/C=C/c1ccn(S(=O)(=O)c2ccc(-c3cccc(C(F)(F)F)c3)cc2)c1)NO` [Compound 85, (E)-N-Hydroxy-3-[1-(3′-trifluoromethyl-biphenyl-4-sulfonyl)-1H-pyrrol-3-yl]acrylamide] was run?
A: 0.014 to 6.7 µM

Q: For `CN(C)Cc1ccc(-c2ccc(S(=O)(=O)n3ccc(/C=C/C(=O)Nc4ccccc4N)c3)cn2)cc1` [Compound 89, (E)-N-(2-Amino-phenyl)-3-{1-[6-(4-dimethylaminomethyl-phenyl)-pyridine-3-sulfonyl]-1H-pyrrol-3-yl}-acrylamide], which IC50 is on record?
A: 0.014 to 6.7 µM

Q: Which IC50 does the source give for `Cc1nc(-c2ccc(S(=O)(=O)n3ccc(/C=C/C(=O)NO)c3)s2)cs1` [Compound 90, (E)-N-Hydroxy-3-{1-[5-(2-methyl-thiazol-4-yl)-thiophene-2-sulfonyl]-1H-pyrrol-3-yl}-acrylamide] here?
A: 0.014 to 6.7 µM

Q: With `NCc1ccc(-c2ccccc2)cc1S(=O)(=O)n1ccc(/C=C/C(=O)NO)c1` [Compound 91, (E)-3-[1-(4-Aminomethyl-biphenyl-3-sulfonyl)-1H-pyrrol-3-yl]-N-hydroxy-acrylamide] as the molecule, how does the IC50 read?
A: 0.014 to 6.7 µM

Q: `O=C(/C=C/c1ccn(S(=O)(=O)c2ccc(-c3ccc(OCCN4CCCC4)cc3)nc2)c1)NO` [Compound 92, (E)-N-Hydroxy-3-(1-{6-[4-(2-pyrrolidin-1-yl-ethoxy)-phenyl]-pyridine-3-sulfonyl}-1H-pyrrol-3-yl)-acrylamide] was tested. Which IC50 did it give?
A: 0.014 to 6.7 µM

Q: For `NCc1cccc(-c2ccc(S(=O)(=O)n3ccc(/C=C/C(=O)NO)c3)s2)c1` [Compound 94, (E)-3-{1-[5-(3-Aminomethyl-phenyl)-thiophene-2-sulfonyl]-1H-pyrrol-3-yl}-N-hydroxy-acrylamide], which IC50 is on record?
A: 0.014 to 6.7 µM

Q: `CN(C)Cc1ccc(-c2ccc(S(=O)(=O)n3ccc(/C=C/C(=O)Nc4ccccc4N)c3)s2)cc1` [Compound 95, (E)-N-(2-Amino-phenyl)-3-{1-[5-(4-dimethylaminomethyl-phenyl)-thiophene-2-sulfonyl]-1H-pyrrol-3-yl}-acrylamide] was tested. Which IC50 did it give?
A: 0.014 to 6.7 µM

Q: With `CN(C)Cc1cccc(-c2ccc(S(=O)(=O)n3ccc(/C=C/C(=O)Nc4ccccc4N)c3)cc2)c1` [Compound 96, (E)-N-(2-Amino-phenyl)-3-[1-(3′-dimethylaminomethyl-biphenyl-4-sulfonyl)-1H-pyrrol-3-yl]-acrylamide] as the molecule, how does the IC50 read?
A: 0.014 to 6.7 µM

Q: For `CC(=O)NCc1ccc(-c2ccc(S(=O)(=O)n3ccc(/C=C/C(=O)Nc4ccccc4N)c3)cc2)cc1` [Compound 97, (E)-3-{1-[4′-(Acetylamino-methyl)-biphenyl-4-sulfonyl]-1H-pyrrol-3-yl}-N-(2-amino-phenyl)-acrylamide], which IC50 is on record?
A: 0.014 to 6.7 µM

Q: Which IC50 does the source give for `CS(=O)(=O)NCc1ccc(-c2ccc(S(=O)(=O)n3ccc(/C=C/C(=O)Nc4ccccc4N)c3)cc2)cc1` [Compound 98, (E)-N-(2-Amino-phenyl)-3-{1-[4′-(methanesulfonylamino-methyl)biphenyl-4-sulfonyl]-1H-pyrrol-3-yl}-acrylamide] here?
A: 0.014 to 6.7 µM

Q: Which IC50 does the source give for `O=C(C=Cc1ccn(S(=O)(=O)c2ccc(-c3ccc(OCCN4CCCC4)cc3)s2)c1)NO` [Compound 99, (E)-N-Hydroxy-3-(1-{5-([4-(2-pyrrolidin-1-yl-ethoxy)-phenyl]-thiophene-2-sulfonyl}-1H-pyrrol-3-yl)-acrylamide] here?
A: 0.014 to 6.7 µM

Q: `CN(C)S(=O)(=O)c1ccc(-c2ccc(S(=O)(=O)n3ccc(/C=C/C(=O)NO)c3)s2)cc1` [Compound 100, (E)-3-{1-[5-(4-Dimethylsulfamoyl-phenyl)-thiophene-2-sulfonyl]-1H-pyrrol-3-yl}-N-hydroxy-acrylamide] was tested. Which IC50 did it give?
A: 0.014 to 6.7 µM

Q: Which IC50 does the source give for `CS(=O)(=O)Nc1ccc(-c2cccc(S(=O)(=O)n3ccc(/C=C/C(=O)Nc4ccccc4N)c3)c2)cc1` [Compound 101, (E)-N-(2-Amino-phenyl)-3-[1-(4′-methanesulfonylamino-biphenyl-3-sulfonyl)-1H-pyrrol-3-yl]-acrylamide] here?
A: 0.014 to 6.7 µM

Q: Which IC50 does the source give for `CN(C)Cc1ccc(-c2cccc(S(=O)(=O)n3ccc(/C=C/C(=O)Nc4ccccc4N)c3)c2)cc1` [Compound 102, (E)-N-(2-Amino-phenyl)-3-[1-(4′-dimethylaminomethyl-biphenyl-3-sulfonyl)-1H-pyrrol-3-yl]-acrylamide] here?
A: 0.014 to 6.7 µM

Reference: patent US7666868B2, “N-sulphonylpyrroles and their use as histone deacetylase inhibitors” (4SC AG, priority 2005, dated 2010)
